Key:
[1] = biological target: putative parathion hydrolase (PPH) from M. tuberculosis, variant PPH_R2:P4-D5, G58V (G59V in SEQ ID NO: 1 numbering; SEQ ID NO: 2), MBP fusion SEQ ID NO: 11 (Mycobacterium tuberculosis, UniProt P9WHN9, G55V); type: biochemical; details: pH 8.3
[2] = biological target: putative parathion hydrolase (PPH) from M. tuberculosis, variant PPH_R2:P8-D12, H171Y (H172Y in SEQ ID NO: 1 numbering; SEQ ID NO: 3), MBP fusion SEQ ID NO: 12 (Mycobacterium tuberculosis, UniProt P9WHN9, H168Y); type: biochemical; details: pH 8.3

Compound: CCCC(=O)CC(=O)N[C@H]1CCOC1=O [C6-oxo-HSL, N-(3-oxo-hexanoyl)-homoserine lactone]
- kcat [1]: 18.66 ± 1.16 s⁻¹
- kcat [2]: 10.16 ± 1.46 s⁻¹

From patent US12667106B2, “Stabilized mutants of quorum quenching lactonase and use thereof in treatment of pathogens” (priority 2019, dated 2026)
